Like-named read-outs stand apart in the source and are kept apart here.
Assays:
[1] = target: DNA-PK/protein complex (Homo sapiens (Human), UniProt P78527); assay: DNA-PK assay (biochemical), flashplate kinase assay
Method: A) DNA-PK Assay (Biochemical)
The kinase assay was carried out in streptavidin-coated […] microtitre flashplates. […] The reaction was stopped using 50 μl/well of 200 mM EDTA. After incubation for a further 30 min at room temperature, the liquid was removed. Each well was washed three times with 100 μl of 0.9% saline solution. A nonspecific reaction (blank value) was determined using 10 μM of an innate kinase inhibitor. The radioactivity measurement was carried out using a TopCount. IC50 values were calculated in RS1.

[2] = target: phospho-serine 2056 DNA-PK in HCT116 cells (Homo sapiens (Human), UniProt P78527); assay: DNA-PK phosphorylation at serine 2056 (cellular), ELISA in bleomycin-treated HCT116 cells; format: cell-based; details: read-out: IC50 pDNA-PK
Method: HCT116 cells were cultivated at 37° C. and 10% CO2 in MEM alpha medium with 10% of foetal calf serum and 2 mM glutamine. The cells were detached from the base of the culture vessels with the aid of trypsin/EDTA, centrifuged off in centrifuge tubes, taken up in fresh medium, and the cell density was determined. 100,000 cells were sown in 1 ml of culture medium per cavity of a 24-well cell culture plate and cultivated overnight. Next day, 10 μM bleomycin (DNA intercalator and inductor of DNA double-strand breaks) and test substances in fresh culture medium were added to the cells, and these were cultivated for a further six hours. […] The 96-well ELISA plates were subsequently treated with a detection antibody (Abcam ab79444: total DNA-PK) and a streptavidin-HRP conjugate. The development of the enzymatic reaction was carried out with the aid of a chemiluminescent reagent, the chemiluminescence was measured with the aid of a Mithras LB940. The signals with the phospho-DNA-PK-specific antibody were standardised to the signal with the antibody against the total protein DNA-PKc. […] The DMSO control was used as blank.

[3] = target: T1, Kv11.1 (hERG) channel (Homo sapiens (Human), UniProt Q12809); assay: Kv11.1 (hERG) ion channel activity (patch clamp assay)
Method: (§1) C) Kv11.1 (hERG) ION CHANNEL ACTIVITY (Patch Clamp Assay)
(§2) The patch-clamp measurement was carried out at room temperature in whole-cell configuration on human embryonic kidney cells (HEK293) which have been transfected in a stable manner with the hERG gene.
(§3) The whole-cell configurations were carried out using an automated patch clamp device (Patchliner™, Nanion Technologies, Munich). This is a glass chip-based system with which automated whole-cell measurements on up to 8 cells simultaneously are possible. The glass chip has a hole of defined size to which the cell is transferred into the Gigaseal by application of a reduced pressure and brought into the whole-cell configuration. Buffer, cell suspension and test substances were added to microchannels of the chip using a Teflon-coated pipette. The cells were clamped to a holding potential of −80 mV. For measurement of substancepromoted inhibition of the Kv11.1 channel, the following voltage protocol was applied at 10-second intervals: 51 ms/−80 mV, 500 ms/+40 mV, 500 ms/−40 mV, 200 ms/−80 mV. The leakage current is subtracted by means of the P4 method. The cells were resuspended in extracellular buffer (EC) and applied to the chip. After the cell had been collected, the seal was improved by addition of a seal enhancer buffer. As soon as the whole-cell configuration had been reached, the seal enhancer buffer was washed out and replaced by extracellular buffer. The measurement started in EC for 1.5 min. DMSO (vehicle control, 0.1% of DMSO) was then applied, and the control current was recorded for 3 min. The test substance was subsequently added twice in the same concentration, and the potassium current was measured for 3.5 min in each case.
(§4) The reference substance used was the Kv11.1 (hERG) ion channel blocker quinidine. The effects of test substances and quinidine were standardised to the associated vehicle control. The effect on the Kv11.1 (hERG) channel activity was assessed from the potassium current at −40 mV. For the calculation, the current was evaluated for the respective final trace.
(§5) During the measurement, an aliquot of the test substance was taken for concentration determination. The sample was measured immediately by HPLC, and the final concentration was determined from a calibration curve.

[4] = target: T1, Kv11.1 (hERG) channel
Method: as §1, §2, §3, §4, §5

[5] = cellular, HCT116, 10 μM bleomycin, six hours

T1 sequence (Q12809 whole entry): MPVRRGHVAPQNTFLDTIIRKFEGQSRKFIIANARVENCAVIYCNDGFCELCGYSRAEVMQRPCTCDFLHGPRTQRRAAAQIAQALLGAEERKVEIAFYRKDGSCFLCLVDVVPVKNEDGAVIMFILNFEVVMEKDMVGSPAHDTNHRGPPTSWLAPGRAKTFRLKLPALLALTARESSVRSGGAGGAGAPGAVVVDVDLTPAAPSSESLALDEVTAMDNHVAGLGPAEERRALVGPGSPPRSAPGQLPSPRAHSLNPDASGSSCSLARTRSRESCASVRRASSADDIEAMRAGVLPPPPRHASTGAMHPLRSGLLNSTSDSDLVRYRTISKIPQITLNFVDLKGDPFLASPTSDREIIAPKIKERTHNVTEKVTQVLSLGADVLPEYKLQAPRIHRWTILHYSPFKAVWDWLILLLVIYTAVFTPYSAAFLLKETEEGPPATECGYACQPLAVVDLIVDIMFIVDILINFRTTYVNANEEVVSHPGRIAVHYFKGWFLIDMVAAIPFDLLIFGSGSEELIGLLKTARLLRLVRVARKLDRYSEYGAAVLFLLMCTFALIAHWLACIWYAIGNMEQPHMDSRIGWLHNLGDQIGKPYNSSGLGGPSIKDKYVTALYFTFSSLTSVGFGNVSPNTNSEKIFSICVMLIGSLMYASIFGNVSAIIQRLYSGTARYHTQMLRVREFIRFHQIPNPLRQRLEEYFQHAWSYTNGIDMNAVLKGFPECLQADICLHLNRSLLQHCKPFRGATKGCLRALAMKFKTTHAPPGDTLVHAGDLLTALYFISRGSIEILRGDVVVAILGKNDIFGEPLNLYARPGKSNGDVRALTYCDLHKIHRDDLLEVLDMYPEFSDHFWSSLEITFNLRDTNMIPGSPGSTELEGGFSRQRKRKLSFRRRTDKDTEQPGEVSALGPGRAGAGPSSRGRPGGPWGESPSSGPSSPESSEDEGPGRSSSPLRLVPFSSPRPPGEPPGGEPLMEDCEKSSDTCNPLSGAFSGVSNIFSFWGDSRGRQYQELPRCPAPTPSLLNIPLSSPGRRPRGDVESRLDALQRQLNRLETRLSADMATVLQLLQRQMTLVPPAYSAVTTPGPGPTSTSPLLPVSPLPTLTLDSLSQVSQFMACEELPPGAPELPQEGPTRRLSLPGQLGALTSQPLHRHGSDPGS

| IC50 ([1]; enzymatic, 5 μM ATP) [µM] | IC50 [2, 5] [µM] | Compound | Ki [3] [µM] | further results |
| --- | --- | --- | --- | --- |
| 0.003 to 0.007 | < 0.5 | COc1nnc(Cl)cc1C(O)c1ccc(F)c(-c2ncnc3cc(N4CCOCC4)ccc23)c1 (centres unmarked) [Example 9] | – | Ki ([3]; read-out: Ki [Kv1.11 hERG], HEK293 transfected with hERG gene, whole-cell): < 10 µM |
| – | – | CCNCc1csc(C(O)c2cc(-c3ncnc4cc(N5CCOCC5)ccc34)c(F)cc2Cl)n1 (centres unmarked) [Example 190] | – | Ki [4]: 15 to 25 µM |
| 0.003 to 0.007 | 10 to 30 | Cn1nccc1C(O)c1ccc(F)c(-c2nc(Cl)nc3cc(N4CCOCC4)ccc23)c1 (centres unmarked) [Example 214, [3-(2-Chloro-7-morpholin-4-yl-quinazolin-4-yl)-4-fluoro-phenyl]-(2-methyl-2H-pyrazol-3-yl)-methanol] | 15 to 25 | – |
| – | – | COc1nccnc1C(C(N)=O)c1cc(-c2ncnc3cc(N4CCOCC4)ccc23)ccc1F (centres unmarked) [Example 316] | 15 to 25 | IC50 ([1]; biochemical DNA-PK assay): > 0.03 µM; IC50 ([2]; DNA-PK phosphorylation at serine 2056, HCT116 cells): 5 to 10 µM |
| – | – | OC(c1ccc(F)c(-c2ncnc3cc(N4CCOCC4)ccc23)c1)c1nccnc1I (centres unmarked) [Example 462, [4-Fluoro-3-(7-morpholin-4-yl-quinazolin-4-yl)-phenyl]-(3-iodo-pyrazin-2-yl)-methanol] | – | Ki ([3]; read-out: Ki [Kv1.11 hERG], hERG patch clamp assay): 15 to 25 µM |

— patent US10172859B2, “Arylquinazolines” (Merck Patent GmbH, priority 2013, dated 2019)
